According to patent US10758620B2, “Potentiated antimicrobial agents” (SEPTEOS, priority 2014, dated 2020):
Where two headings read alike, the source gives them in different places.

Assays:
Pseudomonas aeruginosa = test: MIC measurement in agar medium (dilution test), Pyo; format: cell-based; settings: potentiator alone
Excerpt: (§1) Inhibitory minimum concentration measurement tests are made in a solid agar medium according to international standards in force (CLSI M7-A9 Jan 12 standards): dispersion of the compounds to be tested in a Mueller Hinton gelose. An adaptation relating to the hydrophobicity of compounds and compositions is however necessary to disperse them in the medium: dilution of the compounds in a solvent. The compounds and compositions incorporated in the agar medium can be diluted beforehand in one or more solvents (Tween® 80 diluted with water, Tween® 80 diluted with […], DMSO diluted with water). The strains are deposited onto the agar surface with a steers apparatus. In the examples, different dissolution methods for products are tested in parallel to circumvent the problems of water/solvent distribution coefficient of the molecules (antimicrobial and potentiator) whereas the bacteria grow only in the aqueous phase. The technical requirement will not intervene in in vivo tests. The same dilution methods can be implemented in a liquid medium (microplates and tubes). The same methodology is implemented with fungi. […] MIC measurement: the minimum inhibitory concentration measurement tests are made in an agar solid medium according to international standards in force (CLSI standards), according to the previously defined protocol. […] The booster contribution as compared with the MIC of the antibiotic alone is expressed in a (MIC ATB)/(MIC ATB+booster) ratio. Thereby, gains are defined: […]

Staphylococcus = test: MIC measurement in agar medium (dilution test), Staph; format: cell-based; settings: potentiator alone
Excerpt: as §1

candidas = test: MIC measurement (dilution test) on yeast strains; format: cell-based, Candida; parameters: key to MIC 90 gain / MIC 50 gain: gain = MIC of antifungal alone / MIC of antifungal + booster; settings: Sertaconazole with booster, solvent DMSO
Excerpt: Inhibitory minimum concentration measurement tests are made in a solid agar medium according to international standards in force (CLSI M7-A9 Jan 12 standards): dispersion of the compounds to be tested in a Mueller Hinton gelose. An adaptation relating to the hydrophobicity of compounds and compositions is however necessary to disperse them in the medium: dilution of the compounds in a solvent. The compounds and compositions incorporated in the agar medium can be diluted beforehand in one or more solvents (Tween® 80 diluted with water, Tween® 80 diluted with […], DMSO diluted with water). The strains are deposited onto the agar surface with a steers apparatus. In the examples, different dissolution methods for products are tested in parallel to circumvent the problems of water/solvent distribution coefficient of the molecules (antimicrobial and potentiator) whereas the bacteria grow only in the aqueous phase. The technical requirement will not intervene in in vivo tests. The same dilution methods can be implemented in a liquid medium (microplates and tubes). The same methodology is implemented with fungi. […] MIC measurement: the minimum inhibitory concentration measurement tests are made in an agar solid medium according to international standards in force (CLSI standards), according to the previously defined protocol. […] The booster contribution as compared with the MIC of the antibiotic alone is expressed in a (MIC ATB)/(MIC ATB+booster) ratio. Thereby, gains are defined: […] The yeast strains tested (n=33) belong to the […] albicans, Candida tropicalis, Candida krusei, Candida parapsilosis, Candida glabrata species.

[1] = test system: bacterial strains (Pyo, Coli, Staph); test: MIC measurement in agar medium, tested bacterial strains overall; format: cell-based; settings: compound alone, depending on the strains
Excerpt: Inhibitory minimum concentration measurement tests are made in a solid agar medium according to international standards in force (CLSI M7-A9 Jan 12 standards): dispersion of the compounds to be tested in a Mueller Hinton gelose. An adaptation relating to the hydrophobicity of compounds and compositions is however necessary to disperse them in the medium: dilution of the compounds in a solvent. The compounds and compositions incorporated in the agar medium can be diluted beforehand in one or more solvents (Tween® 80 diluted with water, Tween® 80 diluted with […], DMSO diluted with water). The strains are deposited onto the agar surface with a steers apparatus. In the examples, different dissolution methods for products are tested in parallel to circumvent the problems of water/solvent distribution coefficient of the molecules (antimicrobial and potentiator) whereas the bacteria grow only in the aqueous phase. The technical requirement will not intervene in in vivo tests. The same dilution methods can be implemented in a liquid medium (microplates and tubes). The same methodology is implemented with fungi. MIC measurement: the minimum inhibitory concentration measurement tests are made in an agar solid medium according to international standards in force (CLSI standards), according to the previously defined protocol. […] [table]

Pseudomonas Strain 08131 = test: Etest, Pseudomonas Strain 08131; format: cell-based; settings: for MIC: Pseudomonas, STRAIN08131, Strain 08131, read-out: MIC of Pipera tazo; for MIC of Meropenem: Strain 08131
Excerpt: (§2) The corresponding tests are made based on the usual MIC test: the Etest® (Biomerieux) strip is deposited onto the surface of a seeded agar medium in which the booster has been incorporated. This test enables solvent effect risks, that is a possible interaction with the solvent used in vitro, to be minimised.
(§3) The control corresponds to the test made without cineol. A control is made in each solvent tested: distilled water, Tween/water and DMSO.
(§4) ED control=antibiotic alone in distilled water
(§5) DMSO control=antibiotic alone in DMSO
(§6) TE control=antibiotic alone in Tween® 80

Pseudomonas Strain 08132 = test: Etest, Pseudomonas Strain 08132; format: cell-based
Excerpt: as §2, §3, §4, §5, §6

Strain 10168 SARM = test: Growth test in liquid medium; format: cell-based; settings: compound at a very low dose
Excerpt: The growth tests are made in a liquid medium with prior dispersing the antibiotic booster in a suitable solvent (tween/water).
4XMIC means that the concentration of antibiotic is 4 times higher than its MIC, measured when used alone on the strain considered.

[2] = booster 1 mg/L in agar, Tween/water
[3] = booster 4 mg/L in agar, Tween/water
[4] = booster 16 mg/L in agar, Tween/water

Compound | MIC 50 (Pseudomonas aeruginosa; solvent DMSO) | MIC 90 (Pseudomonas aeruginosa; solvent DMSO) | MIC 50 (Pseudomonas aeruginosa; solvent Tween/prop glyc) | MIC 90 (Pseudomonas aeruginosa; solvent Tween/prop glyc) | MIC 50 (Pseudomonas aeruginosa; solvent Tween/water) | MIC 90 (Pseudomonas aeruginosa; solvent Tween/water) | MIC 50 (Pseudomonas aeruginosa; solvent water/water) | MIC 90 (Pseudomonas aeruginosa; solvent water/water) | MIC 50 (Staphylococcus; solvent DMSO) | MIC 90 (Staphylococcus; solvent DMSO) | MIC 50 (Staphylococcus; solvent Tween/prop glyc) | MIC 90 (Staphylococcus; solvent Tween/prop glyc) | MIC 50 (Staphylococcus; solvent Tween/water) | MIC 90 (Staphylococcus; solvent Tween/water) | MIC 50 (Staphylococcus; solvent water/water) | MIC 90 (Staphylococcus; solvent water/water) | MIC 50 gain (candidas; ratio 64/100) | MIC 90 gain (candidas; ratio 64/100) | MIC 50 gain (candidas; ratio 64/500) | MIC 90 gain (candidas; ratio 64/500) | other results
CC(=O)OCC=Cc1ccccc1 [AC, cinnamyl acetate] | 1.00% | 1.00% | >1% | >1% | >1% | >1% | >1% | >1% | 1.00% | 1.00% | >1% | >1% | >1% | >1% | >1% | >1% | 0.05 | 0.28 | 2.00 | 1.00 | MIC [1]: > 10000 µg/mL; MIC (Pseudomonas Strain 08131; booster 1 mg/L in agar, DMSO): 6 µg/mL; MIC (Pseudomonas Strain 08131; [2]): 6 µg/mL; MIC (Pseudomonas Strain 08131; booster 4 mg/L in agar, DMSO): 3 µg/mL; MIC (Pseudomonas Strain 08131; [3]): 3 µg/mL; MIC (Pseudomonas Strain 08131; booster 16 mg/L in agar, DMSO): 3 µg/mL; MIC (Pseudomonas Strain 08131; [4]): 3 µg/mL; MIC of Meropenem (Pseudomonas Strain 08131; booster 1 mg/L in agar, DMSO): 1.5 µg/mL; MIC of Meropenem (Pseudomonas Strain 08131; [2]): 2 µg/mL; MIC of Meropenem (Pseudomonas Strain 08131; booster 4 mg/L in agar, DMSO): 0.75 µg/mL; MIC of Meropenem (Pseudomonas Strain 08131; [3]): 0.5 µg/mL; MIC of Meropenem (Pseudomonas Strain 08131; booster 16 mg/L in agar, DMSO): 0.75 µg/mL; MIC of Meropenem (Pseudomonas Strain 08131; [4]): 0.38 µg/mL; MIC of Meropenem (Pseudomonas Strain 08132; [2]): 8 µg/mL; effect of the compound on bactericidal rate of Augmentin (Strain 10168 SARM): enables the bactericidal rate of Augmentin® to be accelerated
O=C(OCc1ccccc1)c1ccccc1 [BB, benzyl benzoate] | 1.00% | 1.00% | >1% | >1% | >1% | >1% | >1% | >1% | 1.00% | 1.00% | >1% | >1% | >1% | >1% | >1% | >1% | 0.13 | 0.50 | 1.00 | 1.00 | MIC [1]: > 10000 µg/mL; MIC (Pseudomonas Strain 08131; booster 1 mg/L in agar, DMSO): 6 µg/mL; MIC (Pseudomonas Strain 08131; [2]): 8 µg/mL; MIC (Pseudomonas Strain 08131; booster 4 mg/L in agar, DMSO): 8 µg/mL; MIC (Pseudomonas Strain 08131; [3]): 6 µg/mL; MIC (Pseudomonas Strain 08131; booster 16 mg/L in agar, DMSO): 6 µg/mL; MIC (Pseudomonas Strain 08131; [4]): 4 µg/mL; MIC of Meropenem (Pseudomonas Strain 08131; booster 1 mg/L in agar, DMSO): 1.5 µg/mL; MIC of Meropenem (Pseudomonas Strain 08131; [2]): 3 µg/mL; MIC of Meropenem (Pseudomonas Strain 08131; booster 4 mg/L in agar, DMSO): 2 µg/mL; MIC of Meropenem (Pseudomonas Strain 08131; [3]): 3 µg/mL; MIC of Meropenem (Pseudomonas Strain 08131; booster 16 mg/L in agar, DMSO): 2 µg/mL; MIC of Meropenem (Pseudomonas Strain 08131; [4]): 1 µg/mL; MIC of Meropenem (Pseudomonas Strain 08132; booster 4 mg/L in agar, DMSO): 8 µg/mL; MIC of Meropenem (Pseudomonas Strain 08132; [3]): 8 µg/mL; MIC of Meropenem (Pseudomonas Strain 08132; booster 16 mg/L in agar, DMSO): 2 µg/mL; MIC of Meropenem (Pseudomonas Strain 08132; [4]): 12 µg/mL; effect of the compound on bactericidal rate of Augmentin (Strain 10168 SARM): enables the bactericidal rate of Augmentin® to be accelerated
